Laboratory results published in patent publication US20250205221A1, “MUSCLE RELAXANT” (priority 2022, published 2025).

Key:
[1] = test system: twitch response of the gastrocnemius muscle; assay: Evaluation of neuromuscular blocking effect (time to complete recovery of twitch response); type: in vivo, Male Sprague Dawley rats; conditions: for time until the muscle contraction (twitch response) was completely recovered: rats under isoflurane, dose inducing 95-99.9% neuromuscular block (ED95-99.9) via right jugular vein, sciatic nerve stimulation 0.1 Hz; for duration of action relative to succinylcholine: rats, doses inducing 95-99.9% neuromuscular block
Experimental: Male Sprague Dawley rats (about 300 g body weight) were used in the experiment. Anesthesia was first induced by 4 to 5% isoflurane inhalation and then maintained by 2 to 3% isoflurane inhalation. A warming system was used to keep the body temperature at 36 to 37° C. Lidocaine was infiltrated into the incision site. Tracheostomy was performed and a 16G catheter was inserted to secure the airway. The animals were ventilated by isoflurane and oxygen inhalation using a rodent ventilator at a tidal volume of 10 mL/kg and a respiratory rate of 70/min. A […] catheter was indwelled in the right jugular vein for drug administration. A small slide electrode was attached to the sciatic nerve, and supramaximal stimulation was applied at a frequency of 0.1 Hz and a pulse width of 0.2 ms using an electrostimulator. Using a force transducer, the twitch response of the gastrocnemius muscle was captured, amplified, and recorded. After the amplitude of the twitch response stabilized, a dose of succinylcholine or the JH-cpd series (JH013, JH014) inducing 95-99.9% neuromuscular block was administered, and the time until the muscle contraction (twitch response) was completely recovered was measured.

[2] = reported in Non-Patent Document 1; cited from earlier work

SMILES | time until the muscle contraction (twitch response) was completely recovered [1] | duration of action relative to succinylcholine [1] | duration of action at clinical doses [2]
COc1ccc(CC2c3cc(OC)c(OC)cc3CC[N+]2(C)CCCOC(=O)/C=C/C(=O)OCC[N+](C)(C)C)cc1OC (stereo not drawn) [JH013] | 5.5 min | approximately half | –
COc1ccc(CC2c3cc(OC)c(OC)cc3CC[N+]2(C)CCOC(=O)/C=C/C(=O)OCC[N+](C)(C)C)cc1OC (stereo not drawn) [JH014] | 7.5 min | approximately two-thirds | –
C[N+](C)(C)CCOC(=O)CCC(=O)OCC[N+](C)(C)C [succinylcholine, reference compound] | 11 min | – | approximately 10 minutes
